Read-outs that look alike come from different tables or passages of the source.
Key:
A549 = experiment: Cytotoxic activity, sub-diploid DNA content by flow cytometry (propidium iodide); assay type: cell-based, human
Experimental: (§1) (b) Compound A was assessed for cytotoxic and cytostatic activity against a panel of cell lines derived from a variety of human tumour types in addition to THP-1 and A549 cells (Table 5). These included K562 leukemic cells (Lozzio and Lozzio, 1975, Blood 45:321-34), PC3 prostate tumour cells (Kaighn et al., 1979, Invest. Urol. 17:16-23) and SF268 glioblastoma cells (Westphal et al, 1985, Biochem. Biophys. Res. Commun., 132:284-9). […] However, the cytotoxic potency of Compound A increased dramatically after 6 days of culture for the K562, A549 and SF268 cells.

THP-1 = experiment: as above; assay type: cell-based, human; details: Homo sapiens, THP-1, 72 h, THP-1, 3 days; read-out: LC50 (3 day cultures)
Experimental: as §1

LOX IMV1 = experiment: NCI in vitro anticancer drug discovery screen (sulforhodamine B); assay type: cell-based; details: Homo sapiens, LOX IMV1, melanoma, 48 hr
Experimental: (§2) (c) Testing of Compound A against a much larger cell line panel in the NCI in vitro anticancer screen (Table 7) confirmed the results described above. […] Consistent with the data in Table 5 the cytotoxic effects measured after 2 days of culture were more varied with LC50 values ranging from 10 nM for COLO-205 colon tumour cells to ˜90 μM for 786-0 renal tumour cells.

SK-MEL-2 = experiment: as above; assay type: cell-based; details: Homo sapiens, SK-MEL-2, melanoma, 48 hr
Experimental: as §2

SNB-75 = experiment: as above; assay type: cell-based; details: Homo sapiens, SNB-75, brain, 48 hr
Experimental: as §2

COLO-205 = experiment: as above; assay type: cell-based; details: Homo sapiens, COLO-205, colon, 48 hr
Experimental: as §2

OVCAR-5 = experiment: as above; assay type: cell-based; details: Homo sapiens, OVCAR-5, ovarian, 48 hr
Experimental: as §2

MDA-MB-231/ATCC = experiment: as above; assay type: cell-based; details: Homo sapiens, breast, 48 hr
Experimental: as §2

8K-MEL-5 = experiment: as above; assay type: cell-based; details: Homo sapiens, 8K-MEL-5, melanoma, 48 hr
Experimental: as §2

UACC-62 = experiment: as above; assay type: cell-based; details: Homo sapiens, UACC-62, melanoma, 48 hr
Experimental: as §2

SF-268 = experiment: as above; assay type: cell-based; details: Homo sapiens, SF-268, brain, 48 hr
Experimental: as §2

SK-OV-3 = experiment: as above; assay type: cell-based; details: Homo sapiens, SK-OV-3, ovarian, 48 hr
Experimental: as §2

MDA-MB-435 = experiment: as above; assay type: cell-based; details: Homo sapiens, MDA-MB-435, breast, 48 hr
Experimental: as §2

OVCAR-8 = experiment: as above; assay type: cell-based; details: Homo sapiens, OVCAR-8, ovarian, 48 hr
Experimental: as §2

SF-539 = experiment: as above; assay type: cell-based; details: Homo sapiens, SF-539, brain, 48 hr
Experimental: as §2

MALME-3M = experiment: as above; assay type: cell-based; details: Homo sapiens, melanoma, 48 hr
Experimental: as §2

MDA-N = experiment: as above; assay type: cell-based; details: Homo sapiens, breast, 48 hr
Experimental: as §2

MCF7 = experiment: as above; assay type: cell-based; details: Homo sapiens, MCF7, breast, 48 hr
Experimental: as §2

A498 = experiment: as above; assay type: cell-based; details: Homo sapiens, A498, renal, 48 hr
Experimental: as §2

NCI-H226 = experiment: as above; assay type: cell-based; details: Homo sapiens, NCI-H226, lung, 48 hr
Experimental: as §2

EKVX = experiment: as above; assay type: cell-based; details: Homo sapiens, lung, 48 hr
Experimental: as §2

OVCAR-4 = experiment: as above; assay type: cell-based; details: Homo sapiens, OVCAR-4, ovarian, 48 hr
Experimental: as §2

BT-549 = experiment: as above; assay type: cell-based; details: Homo sapiens, BT-549, breast, 48 hr
Experimental: as §2

SF-295 = experiment: as above; assay type: cell-based; details: Homo sapiens, SF-295, brain, 48 hr
Experimental: as §2

ACHN = experiment: as above; assay type: cell-based; details: Homo sapiens, renal, 48 hr
Experimental: as §2

NCI-11522 = experiment: as above; assay type: cell-based; details: Homo sapiens, NCI-11522, lung, 48 hr
Experimental: as §2

HT29 = experiment: as above; assay type: cell-based; details: Homo sapiens, HT-29, HT29, colon, 48 hr
Experimental: as §2

RXF 393 = experiment: as above; assay type: cell-based; details: Homo sapiens, RXF 393, renal, 48 hr
Experimental: as §2

SK-MEL-28 = experiment: as above; assay type: cell-based; details: Homo sapiens, SK-MEL-28, melanoma, 48 hr
Experimental: as §2

[1] = read-out: LC50 (the source's name)

## COC(=O)[C@H]1[C@@H](O)[C@@]2(O)c3c(OC)cc(OC4OC(C(O)CO)COC4OC)cc3O[C@@]2(c2ccc(OC)cc2)[C@@H]1c1ccccc1 (single isomer, unassigned) [Compound A]
A549; A549, 6 days, read-out: LC50 (6 day cultures)
  CC50: 15 nM
A549; Homo sapiens, A549, 72 h, A549, 3 days, read-out: LC50 (3 day cultures)
  CC50: 914 nM
A549; Homo sapiens, A549, 144 h, A549, 6 days, read-out: LC50 (6 day cultures)
  CC50: 21 nM
THP-1
  CC50: 36 nM
LOX IMV1
  GI50: < 10 nM
LOX IMV1; [1]
  CC50: 1000 nM
SK-MEL-2
  GI50: < 10 nM
SK-MEL-2; [1]
  CC50: 19.1 µM
SNB-75
  GI50: < 10 nM
SNB-75; [1]
  CC50: 54 nM
COLO-205
  GI50: < 10 nM
COLO-205; [1]
  CC50: 10 nM
OVCAR-5
  GI50: < 10 nM
OVCAR-5; [1]
  CC50: 1000 nM
MDA-MB-231/ATCC
  GI50: < 10 nM
MDA-MB-231/ATCC; [1]
  CC50: 25.4 µM
8K-MEL-5
  GI50: < 10 nM
8K-MEL-5; [1]
  CC50: 67 nM
UACC-62
  GI50: < 10 nM
UACC-62; [1]
  CC50: 30 nM
SF-268
  GI50: < 10 nM
SF-268; [1]
  CC50: 1000 nM
SK-OV-3
  GI50: < 10 nM
SK-OV-3; [1]
  CC50: 82.2 µM
MDA-MB-435
  GI50: < 10 nM
MDA-MB-435; [1]
  CC50: 45 nM
OVCAR-8
  GI50: < 10 nM
OVCAR-8; [1]
  CC50: 21.9 µM
SF-539
  GI50: < 10 nM
SF-539; [1]
  CC50: 1100 nM
MALME-3M
  GI50: < 10 nM
MALME-3M; [1]
  CC50: 24 µM
MDA-N
  GI50: < 10 nM
MDA-N; [1]
  CC50: 543 nM
MCF7
  GI50: < 10 nM
MCF7; [1]
  CC50: 1000 nM
A498
  GI50: < 10 nM
A498; [1]
  CC50: 18.6 µM
NCI-H226
  GI50: < 10 nM
NCI-H226; [1]
  CC50: 193 nM
EKVX
  GI50: < 10 nM
EKVX; [1]
  CC50: 23 nM
OVCAR-4
  GI50: < 10 nM
OVCAR-4; [1]
  CC50: 11 nM
BT-549
  GI50: < 10 nM
BT-549; [1]
  CC50: 32.7 µM
SF-295
  GI50: < 10 nM
SF-295; [1]
  CC50: 1230 nM
ACHN
  GI50: < 10 nM
ACHN; [1]
  CC50: 31.6 µM
NCI-11522
  GI50: < 10 nM
NCI-11522; [1]
  CC50: 2400 nM
HT29
  GI50: < 10 nM
HT29; [1]
  CC50: 1000 nM
RXF 393
  GI50: < 10 nM
RXF 393; [1]
  CC50: 1640 nM
SK-MEL-28
  GI50: < 10 nM
SK-MEL-28; [1]
  CC50: 2660 nM
